# According to ChEMBL document CHEMBL1201862, “PubChem BioAssay data set” (2004):
#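 Test compounds were applied to cells in 96-well plates for 48 hours at 5 doses. GI50 marks 50% less growth.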 Calls of active or inactive are those of the source. Cut-off read from the data, not from the text of the source: active = GI50 up to about 1.1 µM and inactive = higher.
# How the values were obtained:
# Assay in all cases: growth of human tumour cells (NCI), 48 h
# OVCAR-4 = system: OVCAR-4
# NCI-H23 = system: NCI-H23
# EKVX = system: EKVX
# OVCAR-3 = system: OVCAR-3
# SF-295 = system: SF-295
# HL-60 = system: HL-60
# HOP-62 = system: HOP-62
# SR = system: SR
# OVCAR-8 = system: OVCAR-8
# RXF 393 = system: RXF 393
# UACC-257 = system: UACC-257
# M19-MEL = system: M19-MEL
# KM12 = system: KM12
# NCI-H460 = system: NCI-H460
# MOLT-4 = system: MOLT-4
# U-251 = system: U-251
# HT-29 = system: HT-29
# K562 = system: K562
# KM-20L2 = system: KM-20L2
# SF-268 = system: SF-268
# UO-31 = system: UO-31
# Malme-3M = system: Malme-3M
# SNB-19 = system: SNB-19
# HCC 2998 = system: HCC 2998
# DMS-114 = system: DMS-114
# COLO 205 = system: COLO 205
# ACHN = system: ACHN
# SNB-78 = system: SNB-78
# HOP-92 = system: HOP-92
# SW-620 = system: SW-620
# SK-MEL-28 = system: SK-MEL-28
# SN12C = system: SN12C
# CCRF-CEM = system: CCRF-CEM
# A549 = system: A549
# SK-OV-3 = system: SK-OV-3
# M14 = system: M14
# HOP-18 = system: HOP-18
# CAKI-1 = system: CAKI-1
# HCT-116 = system: HCT-116
# IGROV-1 = system: IGROV-1
# UACC-62 = system: UACC-62
# 786-0 = system: 786-0
# OVCAR-5 = system: OVCAR-5
# LOX IMVI = system: LOX IMVI
# SK-MEL-2 = system: SK-MEL-2
# NCI-H226 = system: NCI-H226
# HCT-15 = system: HCT-15
# LXFL 529 = system: LXFL 529
# SF-539 = system: SF-539
# DLD-1 = system: DLD-1
# MDA-MB-231 = system: MDA-MB-231
# T47D = system: T47D
# MDA-MB-435 = system: MDA-MB-435
# SK-MEL-5 = system: SK-MEL-5
# MDA-N = system: MDA-N
# A498 = system: A498
# Hs-578T = system: Hs-578T
# NCI/ADR-RES = system: NCI/ADR-RES
# DU-145 = system: DU-145
# BT-549 = system: BT-549
# NCI-H522 = system: NCI-H522
# PC-3 = system: PC-3
# RPMI-8226 = system: RPMI-8226
# TK-10 = system: TK-10
# XF498 = system: XF498
# DMS-273 = system: DMS-273
# MCF7 = system: MCF7
compound,measurement,setting,value
COc1ccc(NC(=O)CCc2cc(-c3ccc(O)c(OC)c3)nc(NC#N)n2)cc1,GI50,OVCAR-4,> 100000 nM (inactive)
same,GI50,NCI-H23,> 100000 nM (inactive)
same,GI50,EKVX,> 100000 nM (inactive)
same,GI50,OVCAR-3,> 100000 nM (inactive)
same,GI50,SF-295,> 100000 nM (inactive)
same,GI50,HL-60,> 100000 nM (inactive)
same,GI50,HOP-62,> 100000 nM (inactive)
same,GI50,SR,> 100000 nM (inactive)
same,GI50,OVCAR-8,> 100000 nM (inactive)
same,GI50,RXF 393,> 100000 nM (inactive)
same,GI50,UACC-257,> 100000 nM (inactive)
same,GI50,M19-MEL,> 100000 nM (inactive)
same,GI50,KM12,> 100000 nM (inactive)
same,GI50,NCI-H460,> 100000 nM (inactive)
same,GI50,MOLT-4,> 100000 nM (inactive)
same,GI50,U-251,> 100000 nM (inactive)
same,GI50,HT-29,> 100000 nM (inactive)
same,GI50,K562,> 100000 nM (inactive)
same,GI50,KM-20L2,> 100000 nM (inactive)
same,GI50,SF-268,> 100000 nM (inactive)
same,GI50,UO-31,> 100000 nM (inactive)
same,GI50,Malme-3M,> 100000 nM (inactive)
same,GI50,SNB-19,> 100000 nM (inactive)
same,GI50,HCC 2998,> 100000 nM (inactive)
same,GI50,DMS-114,> 100000 nM (inactive)
same,GI50,COLO 205,> 100000 nM (inactive)
same,GI50,ACHN,> 100000 nM (inactive)
same,GI50,SNB-78,> 100000 nM (inactive)
same,GI50,HOP-92,> 100000 nM (inactive)
same,GI50,SW-620,> 100000 nM (inactive)
same,GI50,SK-MEL-28,> 100000 nM (inactive)
same,GI50,SN12C,> 100000 nM (inactive)
same,GI50,CCRF-CEM,> 100000 nM (inactive)
same,GI50,A549,> 100000 nM (inactive)
same,GI50,SK-OV-3,> 100000 nM (inactive)
same,GI50,M14,> 100000 nM (inactive)
same,GI50,HOP-18,> 100000 nM (inactive)
same,GI50,CAKI-1,> 100000 nM (inactive)
same,GI50,HCT-116,> 100000 nM (inactive)
same,GI50,IGROV-1,> 100000 nM (inactive)
same,GI50,UACC-62,> 100000 nM (inactive)
same,GI50,786-0,> 100000 nM (inactive)
same,GI50,OVCAR-5,> 100000 nM (inactive)
same,GI50,LOX IMVI,> 100000 nM (inactive)
same,GI50,SK-MEL-2,> 100000 nM (inactive)
same,GI50,NCI-H226,> 100000 nM (inactive)
same,GI50,HCT-15,> 100000 nM
same,GI50,LXFL 529,> 100000 nM (inactive)
same,GI50,SF-539,> 100000 nM (inactive)
same,GI50,DLD-1,> 100000 nM (inactive)
CC[C@]12C=CCN3CCC4(c5cc([C@@]6(C(=O)OC)CC7CN(CCc8c6[nH]c6ccccc86)C[C@@H]6CCCC[C@H]76)c(OC)cc5N(C)C4[C@](O)(C(=O)OC)C1OC(C)=O)[C@@H]32 (stereo partly specified),GI50,OVCAR-4,5200 nM (inactive)
same,GI50,MDA-MB-231,< 10 nM (active)
same,GI50,NCI-H23,< 10 nM (active)
same,GI50,T47D,18200 nM (inactive)
same,GI50,MDA-MB-435,< 10 nM (active)
same,GI50,OVCAR-3,< 10 nM (active)
same,GI50,SK-MEL-5,< 10 nM (active)
same,GI50,SF-295,< 10 nM (active)
same,GI50,HL-60,< 10 nM (active)
same,GI50,HOP-62,< 10 nM (active)
same,GI50,MDA-N,< 10 nM (active)
same,GI50,SR,< 10 nM (active)
same,GI50,A498,< 10 nM (active)
same,GI50,OVCAR-8,< 10 nM (active)
same,GI50,Hs-578T,< 10 nM (active)
same,GI50,RXF 393,< 10 nM (active)
same,GI50,NCI/ADR-RES,14.8 nM (active)
same,GI50,M19-MEL,< 10 nM (active)
same,GI50,DU-145,< 10 nM (active)
same,GI50,KM12,< 10 nM (active)
same,GI50,NCI-H460,< 10 nM (active)
same,GI50,MOLT-4,< 10 nM (active)
same,GI50,U-251,< 10 nM (active)
same,GI50,HT-29,< 10 nM (active)
same,GI50,BT-549,1320 nM (inactive)
same,GI50,KM-20L2,< 10 nM (active)
same,GI50,NCI-H522,< 10 nM (active)
same,GI50,SF-268,< 10 nM (active)
same,GI50,UO-31,< 29.9 nM (active)
same,GI50,Malme-3M,< 10 nM (active)
same,GI50,SNB-19,< 10 nM (active)
same,GI50,HCC 2998,< 10 nM (active)
same,GI50,PC-3,< 10 nM (active)
same,GI50,DMS-114,< 10 nM (active)
same,GI50,RPMI-8226,< 10 nM (active)
same,GI50,COLO 205,< 10 nM (active)
same,GI50,ACHN,< 10 nM (active)
same,GI50,SNB-78,< 10 nM (active)
same,GI50,HOP-92,25.9 nM (active)
same,GI50,SW-620,< 10 nM (active)
same,GI50,TK-10,< 10 nM (active)
same,GI50,SK-MEL-28,2110 nM (inactive)
same,GI50,SN12C,< 10 nM (active)
same,GI50,CCRF-CEM,< 10 nM (active)
same,GI50,A549,< 10 nM (active)
same,GI50,SK-OV-3,< 10 nM (active)
same,GI50,XF498,< 10 nM (active)
same,GI50,M14,< 10 nM (active)
same,GI50,DMS-273,< 10 nM (active)
same,GI50,HCT-116,< 10 nM (active)
same,GI50,MCF7,< 10 nM (active)
same,GI50,IGROV-1,< 10 nM (active)
same,GI50,UACC-62,< 10 nM (active)
same,GI50,786-0,< 10 nM (active)
same,GI50,LOX IMVI,< 10 nM (active)
same,GI50,SK-MEL-2,< 10 nM (active)
same,GI50,NCI-H226,< 10 nM (active)
same,GI50,HCT-15,< 10 nM
same,GI50,LXFL 529,< 10 nM (active)
same,GI50,SF-539,< 10 nM (active)
same,GI50,DLD-1,< 10 nM (active)
